Test results taken from US20250136607A1 (REGOR PHARMACEUTICALS, INC., priority 2021, published 2025).
Like-named read-outs stand apart in the source and are kept apart here.

Columns and labels:
[1] = target: Protein arginine deiminase 4 (PAD4) (Homo sapiens, UniProt Q9UM07); assay: PAD4 ammonia release assay; type: biochemical; conditions: for relative potency of separated isomers in the PAD4 biochemical assay: SFC-separated stereoisomer pairs
Procedure, shortened: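 PAD4 (20 nM, 2× working solution) was preincubated with compound for 15 min at RT in 100 mM HEPES pH 8.0, 2 mM CaCl2, 50 mM NaCl, 0.1 mM TCEP, BSA at 1.25% DMSO. BAEE (600 μM, 2× mix) reacted 60 min, then OPA/DTT/EDTA detection for 120 min. IC50 came from a 4-parameter fit, normalized to 50 μM reference (100%) and DMSO (0%).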

[2] = tested on: Citrullinated Histone H3 in dHL-60 cells (differentiated HL-60); assay: dHL-60 Cit-H3 ELISA assay; type: cell-based, human; conditions: Homo sapiens, read-out: Average IC50 Abs
Description: Cell culture: HL-60 cells were grown in IMDM+20% FBS+1% PS. The suspension cells were split into 1:5 with fresh media every 2-3 days to maintain cell density between 1×10^5 to 1×10^6 viable cells/mL. HL-60 cells differentiation: HL-60 cells were diluted to 1×10^5 cells/mL and differentiated into neutrophil-like cells with 100 mM DMF treatment for 72 hours in flask at 37° C., 5% CO2. dHL-60 Cells plating: • 1) HL-60 cells were collected, and the plate was centrifuged at 1000 rpm for 5 min. • 2) The HL-60 cells were diluted to 1.25×10^6 cells/mL and plated into a 96-well plate with 80 μL/well (i.e., 1×10^5/well). The plate was then incubated in the incubator (5% CO2, 37° C.) for 30 min to allow cells to adhere. Compound treatment: • 1) Preparation of compound serial dilution (source plate 500×, final DMSO concentration: 0.2%): briefly, compounds were dissolved in 100% DMSO to a concentration of 20 mM (the stock solution) and a 3-fold serial dilution with 8-point doses was performed. • 2) A 10× compound solution was pipetted up and down; and 10 μL/well of compounds were added into each well and incubated for 30 min. Stimulation with 25 μM A23187: • 1) A solution of A23187 (250 μM) in complete IMDM (IMDM+10% FBS+1% PS) containing 150 U/mL S7 Nuclease was prepared. The obtained solution was added 10 μL/well into each well and incubated for 3 h in the incubator (5% CO2, 37° C.). • 2) The dHL-60 cells treated with 10 μL/well complete IMDM without A23187 worked as negative control. Sample preparation: • 1) EDTA (0.5 M, 2 μL/well) were added to all the wells to stop the reaction. • 2) The plate was centrifuged at 1000 rpm for 5 min to collect supernatant. • 3) The supernatant was then diluted at least 1:2 before adding to the ELISA plate for citrullinated H3 analysis.
The standard was reconstituted with 2 mL of Assay buffer to 500 ng/mL. The reconstituted standard was relatively unstable at 4° C. and should be used within 3 hr after reconstitution.
• 1) 100 μL of the standards or diluted samples were added to the wells on the ELISA plate. • 2) The plate was covered with Cover Sheet and incubated for 2 h at room temperaturert on an orbital shaker.
On the day of the assay, the reagent was thawed at room temperaturert. For one plate, 1.2 mL of HRP Conjugate were diluted into 10.8 mL of assay buffer. A diluted HRP Conjugate was prepared shortly before use.
• 1) The wells were empties and rinsed four times with 1× wash buffer with 300 μL/well (Low speed). The plate was inverted between wash steps to empty the plate. After the last wash, the inverted plate was gently tapped on absorbent paper to remove the residual wash buffer. • 2) 100 μL of the HRP Conjugate working solution were added to each well of the plate. • 3) The plate was covered with cover sheet and incubated for 1 h at RT on an orbital shaker.
• 1) The wells were empties and rinsed four times with 1× wash buffer with 300 μL/well (low speed). The plate was inverted between wash steps to empty the plate. […] 100 uL of HRP STOP solution were added to each well of the plate.
• 1) Wipe the bottom of the plate with a clean tissue to remove fingerprints, dirt, etc. • 2) Read the plate at a wavelength of 450 nm.
The percent (%) inhibition at each concentration of compound was calculated based on and relative to the signal in the HPE and ZPE wells contained within each assay plate. The HPE wells worked as […], and the ZPE wells didn't contain any compound but rather DMSO (final concentration=0.1%) as […]. The concentrations and % inhibition values for tested compounds were plotted and the concentration of compound required for 50% inhibition (IC50) was determined with a Four-parameter logistic dose response equation. The endpoint value (IC50) for the reference peptide/compound was evaluated in each experiment as a quality control measure. If the endpoint value is within 3-fold of the expected value then the experiment is deemed acceptable. […]

[3] = PAD4 ammonia release assay, BAEE substrate, 60 min at RT, read-out: Average IC50 Abs
[4] = HL-60, 3 h, stimulation with 25 μM A23187 for 3 h

Chain of Protein arginine deiminase 4 (PAD4) (Q9UM07 whole entry): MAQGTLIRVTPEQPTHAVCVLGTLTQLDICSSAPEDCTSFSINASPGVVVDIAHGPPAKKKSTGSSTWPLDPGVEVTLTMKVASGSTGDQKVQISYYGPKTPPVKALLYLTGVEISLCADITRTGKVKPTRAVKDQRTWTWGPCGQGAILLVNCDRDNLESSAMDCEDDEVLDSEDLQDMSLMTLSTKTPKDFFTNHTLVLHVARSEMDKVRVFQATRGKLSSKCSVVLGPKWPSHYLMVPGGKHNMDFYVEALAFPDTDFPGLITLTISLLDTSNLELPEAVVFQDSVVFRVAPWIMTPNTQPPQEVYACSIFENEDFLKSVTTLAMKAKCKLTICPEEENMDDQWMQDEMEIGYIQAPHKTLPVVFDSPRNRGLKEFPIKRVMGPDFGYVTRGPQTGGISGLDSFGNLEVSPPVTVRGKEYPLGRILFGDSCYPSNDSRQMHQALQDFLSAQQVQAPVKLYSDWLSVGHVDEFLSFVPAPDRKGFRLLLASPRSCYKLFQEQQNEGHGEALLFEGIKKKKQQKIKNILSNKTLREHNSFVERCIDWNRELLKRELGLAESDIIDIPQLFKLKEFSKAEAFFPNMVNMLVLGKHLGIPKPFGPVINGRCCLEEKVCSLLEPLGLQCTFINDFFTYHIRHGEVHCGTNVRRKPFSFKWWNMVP

Row | SMILES | IC50 [1, 3] | relative potency of separated isomers in the PAD4 biochemical assay [1] | IC50 [2, 4] | IC50 ([1]; PAD4 activity comparison, read-out: PAD4 Ammonia assay IC50) | IC50 ([2]; HL-60, stimulation with 25 μM A23187 for 3 h)
1 | CC[C@H]1CNc2cccc3cc(-c4nc5cc(C(=O)N6C[C@H]7CC[C@@H]6[C@@H]7N)cc(F)c5n4C)n1c23 [Example 74, ((1R,4R,7R)-7-amino-2-azabicyclo[2.2.1]heptan-2-yl)(2-((S)-3-ethyl-2,3-dihydro-1H-pyrrolo[1,2,3-de]quinoxalin-5-yl)-7-fluoro-1-methyl-1H-benzo[d]imidazol-5-yl)methanone] | ≤ 100 nM | more potent than Example 73 | ≤ 100 nM | – | –
2 | CCC1CN(CCCO)c2cccc3cc(-c4nc5cc(C(=O)N6C[C@H]7CC[C@@H]6[C@@H]7N)cc(F)c5n4CC4COC4)n1c23 (stereo partly drawn) [Example 92, ((1R,4R,7R)-7-amino-2-azabicyclo[2.2.1]heptan-2-yl)(2-(3-ethyl-1-(3-hydroxypropyl)-2,3-dihydro-1H-pyrrolo[1,2,3-de]quinoxalin-5-yl)-7-fluoro-1-(oxetan-3-ylmethyl)-1H-benzo[d]imidazol-5-yl)methanone] | 100 to 500 nM | – | ≤ 100 nM | – | –
3 | CC(C)C1CN(CCCO)c2cccc3cc(-c4nc5cc(C(=O)N6C[C@H]7CC[C@@H]6[C@@H]7N)cc(F)c5n4C)n1c23 (stereo partly drawn) [Example 103, ((1R,4R,7R)-7-amino-2-azabicyclo[2.2.1]heptan-2-yl)(7-fluoro-2-(1-(3-hydroxypropyl)-3-isopropyl-2,3-dihydro-1H-pyrrolo[1,2,3-de]quinoxalin-5-yl)-1-methyl-1H-benzo[d]imidazol-5-yl)methanone] | 100 to 500 nM | – | – | – | ≤ 100 nM
4 | CC(C)C1CNc2cccc3cc(-c4nc5cc(C(=O)N6C[C@H]7CC[C@@H]6[C@@H]7N)cc(F)c5n4C)n1c23 (stereo partly drawn) [Example 104, ((1R,4R,7R)-7-amino-2-azabicyclo[2.2.1]heptan-2-yl)(7-fluoro-2-(3-isopropyl-2,3-dihydro-1H-pyrrolo[1,2,3-de]quinoxalin-5-yl)-1-methyl-1H-benzo[d]imidazol-5-yl)methanone] | 100 to 500 nM | – | ≤ 100 nM | 130 nM | –
5 | CC(C)[C@H]1CNc2cccc3cc(-c4nc5cc(C(=O)N6C[C@H]7CC[C@@H]6[C@@H]7N)cc(F)c5n4C)n1c23 [Example 106, ((1R,4R,7R)-7-amino-2-azabicyclo[2.2.1]heptan-2-yl)(7-fluoro-2-((S)-3-isopropyl-2,3-dihydro-1H-pyrrolo[1,2,3-de]quinoxalin-5-yl)-1-methyl-1H-benzo[d]imidazol-5-yl)methanone] | 100 to 500 nM | more potent than Example 105 | ≤ 100 nM | – | –
6 | CC(C)C1CN(C)c2cccc3cc(-c4nc5cc(C(=O)N6C[C@H]7CC[C@@H]6[C@@H]7N)cc(F)c5n4C)n1c23 (stereo partly drawn) [Example 107, ((1R,4R,7R)-7-amino-2-azabicyclo[2.2.1]heptan-2-yl)(7-fluoro-2-(3-isopropyl-1-methyl-2,3-dihydro-1H-pyrrolo[1,2,3-de]quinoxalin-5-yl)-1-methyl-1H-benzo[d]imidazol-5-yl)methanone] | 100 to 500 nM | – | 100 to 500 nM | – | –
7 | Cn1c(-c2cc3cc(F)cc4c3n2C(C2CC2)CN4)nc2cc(C(=O)N3C[C@H]4CC[C@@H]3[C@@H]4N)cc(F)c21 (stereo partly drawn) [Example 122, ((1R,4R,7R)-7-amino-2-azabicyclo[2.2.1]heptan-2-yl)(2-(3-cyclopropyl-8-fluoro-2,3-dihydro-1H-pyrrolo[1,2,3-de]quinoxalin-5-yl)-7-fluoro-1-methyl-1H-benzo[d]imidazol-5-yl)methanone] | 100 to 500 nM | – | 100 to 500 nM | – | –
8 | Cn1c(-c2cc3ccc(S(C)(=O)=O)c4c3n2C(C2CC2)CN4)nc2cc(C(=O)N3C[C@H]4CC[C@@H]3[C@@H]4N)cc(F)c21 (stereo partly drawn) [Example 123, ((1R,4R,7R)-7-amino-2-azabicyclo[2.2.1]heptan-2-yl)(2-(3-cyclopropyl-9-(methylsulfonyl)-2,3-dihydro-1H-pyrrolo[1,2,3-de]quinoxalin-5-yl)-7-fluoro-1-methyl-1H-benzo[d]imidazol-5-yl)methanone] | ≤ 100 nM | – | ≤ 100 nM | – | –

The next lines start with results.

Row | IC50 [1, 3] | relative potency of separated isomers in the PAD4 biochemical assay [1] | IC50 [2, 4] | IC50 ([1]; PAD4 activity comparison, read-out: PAD4 Ammonia assay IC50) | SMILES | IC50 ([2]; HL-60, stimulation with 25 μM A23187 for 3 h)
9 | 100 to 500 nM | – | 100 to 500 nM | – | CCC1CN(CCCO)c2cccc3cc(-c4nc5cc(C(=O)N6C[C@H](N)C[C@@H](F)C6)cc(OC)c5n4C)n1c23 (stereo partly drawn) [Example 80, ((3R,5R)-3-amino-5-fluoropiperidin-1-yl)(2-(3-ethyl-1-(3-hydroxypropyl)-2,3-dihydro-1H-pyrrolo[1,2,3-de]quinoxalin-5-yl)-7-methoxy-1-methyl-1H-benzo[d]imidazol-5-yl)methanone] | –
10 | 100 to 500 nM | – | ≤ 100 nM | – | CCC1CN(CCCO)c2cccc3cc(-c4nc5cc(C(=O)N6C[C@H]7CC[C@@H]6[C@@H]7N)cc(OC)c5n4C)n1c23 (stereo partly drawn) [Example 85, ((1R,4R,7R)-7-amino-2-azabicyclo[2.2.1]heptan-2-yl)(2-(3-ethyl-1-(3-hydroxypropyl)-2,3-dihydro-1H-pyrrolo[1,2,3-de]quinoxalin-5-yl)-7-methoxy-1-methyl-1H-benzo[d]imidazol-5-yl)methanone] | –
11 | 100 to 500 nM | – | 100 to 500 nM | – | CCC1CN(CCC(C)(C)O)c2cccc3cc(-c4nc5cc(C(=O)N6C[C@H]7CC[C@@H]6[C@@H]7N)cc(F)c5n4C)n1c23 (stereo partly drawn) [Example 88, ((1R,4R,7R)-7-amino-2-azabicyclo[2.2.1]heptan-2-yl)(2-(3-ethyl-1-(3-hydroxy-3-methylbutyl)-2,3-dihydro-1H-pyrrolo[1,2,3-de]quinoxalin-5-yl)-7-fluoro-1-methyl-1H-benzo[d]imidazol-5-yl)methanone] | –
12 | 100 to 500 nM | – | 100 to 500 nM | – | C#CCn1c(-c2cc3cccc4c3n2C(CC)CN4CCCO)nc2cc(C(=O)N3C[C@H]4CC[C@@H]3[C@@H]4N)cc(F)c21 (stereo partly drawn) [Example 91, ((1R,4R,7R)-7-amino-2-azabicyclo[2.2.1]heptan-2-yl)(2-(3-ethyl-1-(3-hydroxypropyl)-2,3-dihydro-1H-pyrrolo[1,2,3-de]quinoxalin-5-yl)-7-fluoro-1-(prop-2-yn-1-yl)-1H-benzo[d]imidazol-5-yl)methanone] | –
13 | ≤ 100 nM | – | 100 to 500 nM | – | CCC1CN(CCC(N)=O)c2cccc3cc(-c4nc5cc(C(=O)N6C[C@H](N)C[C@@H](F)C6)cc(OC)c5n4C)n1c23 (stereo partly drawn) [Example 94, 3-(5-(5-((3R,5R)-3-amino-5-fluoropiperidine-1-carbonyl)-7-methoxy-1-methyl-1H-benzo[d]imidazol-2-yl)-3-ethyl-2,3-dihydro-1H-pyrrolo[1,2,3-de]quinoxalin-1-yl)propanamide] | –
14 | 100 to 500 nM | – | 100 to 500 nM | – | CCC1CN(CCCOC)c2cccc3cc(-c4nc5cc(C(=O)N6C[C@H]7CC[C@@H]6[C@@H]7N)cc(F)c5n4CC)n1c23 (stereo partly drawn) [Example 100, ((1R,4R,7R)-7-amino-2-azabicyclo[2.2.1]heptan-2-yl)(1-ethyl-2-(3-ethyl-1-(3-methoxypropyl)-2,3-dihydro-1H-pyrrolo[1,2,3-de]quinoxalin-5-yl)-7-fluoro-1H-benzo[d]imidazol-5-yl)methanone] | –
